Entries after “also recorded” stand apart in the source; their conditions may differ. Structures can show the parent of a compound that is named as a salt. Where two headings read alike, the source gives them in different places. Non-standard residues stand in square brackets, D forms with d. Residues, ends and D or L forms follow the SMILES beside them.

These results are taken from patent publication US6251854A, “N-methyl-d-aspartate receptor channel blockers and method for identifying such” (priority 1999, dated 2001).

The target of assay [1] is T1, human NR1-NR2A NMDA receptor subunits (Homo sapiens, UniProt Q05586+Q12879).
T1 construct: expressed in transfected cells; host or cells: Xenopus laevis oocytes
The assay can be described thus: amphibian oocyte current blockade assay (agonist-evoked currents). The settings on record: for potency rank as NMDA blocker (FIG. 1): unacetylated peptides; for selectivity for NMDA receptor channels: versus non-NMDA glutamate receptors. The class given is cell-based. As to the method: Briefly, in the amphibian oocyte current blockade assay, human NMDA receptors are expressed in the oocytes. The receptors are stimulated in the cells by NMDA agonists. Agonist-induced current is the control against which current blockade levels achieved by incubating the oocytes with candidate NMDA blockers are measured.
(A) NMDA specific receptor channel blocking peptides ("NMDA blockers") were identified by screening synthetic combinatorial libraries (SCL) (see e.g., the library and peptide synthesis methods described in Ostresh, et al., Meth Enzymol (1996) 267:220-34, incorporated herein by reference) and assaying for blockade of agonist-evoked currents by the human NR1-NR2A NMDA receptor subunits expressed in amphibian (Xenopus laevis) oocytes (see, for example, the assay method described in Ferrer-Monteil and Montal, METHODS:A Companion to Methods in Enzymology (1994) 6:60-68, incorporated herein by reference).
(D) The compounds prepared in part (B) above were examined for activity against human brain NMDA receptors (composed of NR1 and NR2A subunits) expressed in oocytes. Ionic currents were activated by 200 μM L-glutamate (L-GIu) 20 μM glycine (Gly), at a holding potential Vh =[…]. Ba^2+ /flufenamic Ringer solution was supplemented with agonist and compounds of the invention, and blockade activity determined for each compound.
An example of how the assay method is performed follows, with reference to FIG. 5.

In assay [2] the test system is cultured hippocampal neurons. The assay can be described thus: hippocampal neuronal cell death model (NMDA excitotoxicity). The settings on record: neurons exposed to 200 μM NMDA for 20 minutes (FIG. 3). Format: cell-based, mammalian. From the text:
In addition to approved clinical trials of the inventive compounds in humans, their efficacy can be confirmed in various known animal models for cerebral impairments associated with NMDA receptor pathology, such as the rat ischemia model (e.g., Seif, et al., Eur J Pharmacol (1990) 185:19-24 and Block and Schwara, Neurosci Lett (1996) 208:41-44). Useful in vitro models for testing neuroprotective drug effects in cerebral neuronal cells are also known and include the chick embryo hypoxia model (e.g., Krieglstein, et al., J Pharmacol Meth (1988) 20:39-46) and the mammalian hippocampal neuronal system in which the inventive compounds were tested (e.g., Schinder, et al., supra). These references are each incorporated by reference to illustrate knowledge in the art concerning models of cerebral dysfunction. Those of ordinary skill in the art will be familiar with, or can readily ascertain, other suitable models for use in testing the compounds of the invention.
Testing of the NMDA blockers of the invention in a hippocampal cell model for neurodysfunction (using the method described in Schinder, et al., J Neurosci (1996) 16:6125-33, incorporated herein by reference) yielded surprising results. Specifically, the NMDA blockers of the invention exert a substantial protective effect against cell death induced by exposure of cultured hippocampal neurons to glutamate agonists in the described model of neuronal cell death due to NMDA receptor dysfunction. In this model, neurons exposed to 200 μM NMDA for 20 minutes display extensive death that can be prevented by open channel blockers such as MK-801 or memantine (FIG. 3). This in vitro paradigm of excitotoxicity provides an assay of neuroprotection (see e.g., Schinder et al., supra and Deshpande, et al., Arch Toxicol, 69:384-390).

The target of assay [3] is T2, AMPA-receptor subunit GluR1 (Homo sapiens, UniProt P42261).
T2 construct: expressed in transfected cells; host or cells: amphibian oocytes
In words: current blockade at non-NMDA glutamate receptor channels in amphibian oocytes. The class given is cell-based. An excerpt: FIG. 1 is a bar graph which depicts the extent of current blockade achieved by various peptides of the invention acting on NMDA receptors ("NMDAR", solid bars) and glutamate receptors of the AMPA-receptor subunit GluR1 type ("GluR1", shaded bars) in amphibian oocytes. Each tested peptide is identified by sequence and test number along the bottom axis of the graph. Current blockade is expressed as a function of the extent of current reduction as compared to current produced in control amphibian oocytes.
(B) To examine the specificity of the blockade activity, the activity of the peptides on glutamate receptor channels of the non-NMDA subtype, specifically, the AMPA-receptor subunit GluR1, was tested.

Where [4] appears, read: Table 2, bicyclic compounds, 200 μM L-glutamate 20 μM glycine, Vh = −80 mV, blocked response 1-(Icmpd/Iagonist), read-out: IC50 (μM) Inhibitory Concentrations.

T1 sequence (Q12879 23-1464, other chains not shown): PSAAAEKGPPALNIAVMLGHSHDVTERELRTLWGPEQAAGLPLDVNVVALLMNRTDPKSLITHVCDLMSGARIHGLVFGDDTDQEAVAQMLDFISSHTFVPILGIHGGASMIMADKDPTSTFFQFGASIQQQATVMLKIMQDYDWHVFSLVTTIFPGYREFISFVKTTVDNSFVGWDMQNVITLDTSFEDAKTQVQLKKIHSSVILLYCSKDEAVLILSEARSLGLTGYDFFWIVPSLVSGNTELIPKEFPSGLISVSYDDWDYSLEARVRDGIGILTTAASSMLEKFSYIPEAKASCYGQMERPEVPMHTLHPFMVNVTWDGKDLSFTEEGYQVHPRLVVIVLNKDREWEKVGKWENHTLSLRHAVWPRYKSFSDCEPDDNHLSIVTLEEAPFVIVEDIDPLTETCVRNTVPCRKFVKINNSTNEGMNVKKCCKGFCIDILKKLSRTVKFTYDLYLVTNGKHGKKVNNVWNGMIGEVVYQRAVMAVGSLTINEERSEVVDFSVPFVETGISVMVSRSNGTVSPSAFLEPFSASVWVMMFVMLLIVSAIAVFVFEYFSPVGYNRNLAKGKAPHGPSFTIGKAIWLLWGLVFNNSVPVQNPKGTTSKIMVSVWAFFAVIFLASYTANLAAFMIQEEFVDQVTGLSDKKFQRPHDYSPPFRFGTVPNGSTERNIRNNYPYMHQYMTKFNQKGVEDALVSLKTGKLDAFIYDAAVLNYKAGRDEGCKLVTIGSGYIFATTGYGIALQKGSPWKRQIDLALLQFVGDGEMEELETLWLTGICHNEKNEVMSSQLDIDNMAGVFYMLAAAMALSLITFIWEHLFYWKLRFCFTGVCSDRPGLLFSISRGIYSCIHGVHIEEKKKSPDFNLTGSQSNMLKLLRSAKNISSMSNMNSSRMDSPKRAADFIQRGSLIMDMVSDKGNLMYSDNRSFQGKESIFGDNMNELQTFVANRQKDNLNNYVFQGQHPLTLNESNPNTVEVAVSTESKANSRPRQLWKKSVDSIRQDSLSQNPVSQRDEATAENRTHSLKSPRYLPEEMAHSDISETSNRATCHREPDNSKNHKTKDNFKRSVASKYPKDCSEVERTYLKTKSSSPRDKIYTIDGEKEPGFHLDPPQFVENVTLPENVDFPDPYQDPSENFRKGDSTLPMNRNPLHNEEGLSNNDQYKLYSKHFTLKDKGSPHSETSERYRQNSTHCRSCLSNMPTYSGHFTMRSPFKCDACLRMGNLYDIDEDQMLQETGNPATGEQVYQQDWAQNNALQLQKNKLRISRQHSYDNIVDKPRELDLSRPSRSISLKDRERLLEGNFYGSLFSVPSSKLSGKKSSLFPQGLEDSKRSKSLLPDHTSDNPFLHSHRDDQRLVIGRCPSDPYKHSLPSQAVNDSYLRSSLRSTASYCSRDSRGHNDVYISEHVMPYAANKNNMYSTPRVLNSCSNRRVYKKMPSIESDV
T2 sequence (P42261 19-906): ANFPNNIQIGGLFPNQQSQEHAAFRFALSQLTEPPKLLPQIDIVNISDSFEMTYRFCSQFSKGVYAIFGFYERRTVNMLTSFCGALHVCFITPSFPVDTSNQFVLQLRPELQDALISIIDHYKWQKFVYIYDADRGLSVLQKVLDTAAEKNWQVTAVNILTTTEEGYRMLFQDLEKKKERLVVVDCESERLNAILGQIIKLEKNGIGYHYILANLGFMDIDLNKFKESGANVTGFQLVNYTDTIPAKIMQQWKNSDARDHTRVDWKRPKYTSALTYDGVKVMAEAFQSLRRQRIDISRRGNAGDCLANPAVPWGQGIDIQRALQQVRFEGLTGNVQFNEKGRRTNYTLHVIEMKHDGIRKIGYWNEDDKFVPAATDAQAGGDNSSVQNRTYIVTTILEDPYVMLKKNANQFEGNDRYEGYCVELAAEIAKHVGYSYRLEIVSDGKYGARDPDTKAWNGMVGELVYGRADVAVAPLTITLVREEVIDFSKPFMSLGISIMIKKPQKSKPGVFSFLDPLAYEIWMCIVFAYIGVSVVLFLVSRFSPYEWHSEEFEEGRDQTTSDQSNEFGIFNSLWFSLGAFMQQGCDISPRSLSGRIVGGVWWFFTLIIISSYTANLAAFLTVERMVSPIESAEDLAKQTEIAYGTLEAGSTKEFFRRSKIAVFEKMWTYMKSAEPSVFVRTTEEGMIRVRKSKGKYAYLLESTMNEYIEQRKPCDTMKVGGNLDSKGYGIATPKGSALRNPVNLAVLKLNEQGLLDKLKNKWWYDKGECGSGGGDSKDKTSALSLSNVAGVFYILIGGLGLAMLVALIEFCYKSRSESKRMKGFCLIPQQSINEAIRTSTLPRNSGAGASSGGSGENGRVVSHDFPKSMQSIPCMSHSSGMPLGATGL

With “2H-3-(4-fluorobenzyl)-7-(but-2-yl)-8-(3-methyl-butyl)diazolidine[1,2-b]dihydroimidazole”, the IC50 in assay [1] (setting [4]) was 1.2 µM.

Turning to `C[C@]12N[C@H](Cc3ccccc31)c1ccccc12` [MK-801, reference compound], in assay [2], the “protection of neurons from excitotoxic cell death” value (from here on “protection of neurons”) is recorded as “prevented”.

For RRRCWW, in assay [3] (set result: weakly sensitive), the “sensitivity of AMPA receptor channels to the peptides (FIG. 1)” value is listed as “excepting”.

In the case of RRRRRW, the “blockade effect on non-NMDA glutamate receptors” value in assay [3] is on record as “no blockade effect”. In addition, in assay [1], the “current blockade at a steady concentration compared with the same concentration of memantine (FIG. 2)” value is given as “comparable”, the “potency rank as NMDA blocker (FIG. 1)” value was “most potent” and the “selectivity for NMDA receptor channels” value is on record as “selective for NMDA receptor channels”. Besides, in assay [1] (200 μM L-glutamate/20 μM glycine), the “effect on evoked inward currents upon perfusion (FIG. 5)” value is listed as “sharply attenuated”. For the same compound, in assay [1] (compared with RRRRRR (#111)), the “increase of blockade efficacy by a C-terminal tryptophan (Ki RRRRRR vs RRRRRW)” value turned out to be 1000 fold. The “protection of neurons” value in assay [2] is reported as “prevented neuronal cell death; also recorded: protected neurons from excitotoxic cell death”.

As for “2H-3-(4-fluorobenzyl)-7-(t-butyl)-8-(3-methyl-butyl)diazolidine[1,2-b]dihydroimidazole”, the IC50 in assay [1] (setting [4]) came to 2.2 µM.

On to RRCRWW, for which, in assay [3], the “blockade effect on non-NMDA glutamate receptors” value is “no blockade effect”. Also, in assay [1], the “selectivity for NMDA receptor channels” value is “selective for NMDA receptor channels”. Also, the “protection of neurons” value in assay [2] is “prevented neuronal cell death”.

As to “2H-3-(4-fluorobenzyl)-7-(3-guanidinopropyl)-8-(3-methylbutyl)diazolidine[1,2-b]dihydroimidazole”, the IC50 in assay [1] (setting [4]) came out at 6.1 µM.

In assay [1], `CC(C)C[C@@H](NC(=O)[C@@H](Cc1ccc(O)cc1)NC(=O)[C@H](N)CCCNC(=N)N)C(=O)N[C@H](Cc1ccccc1)C(=O)N[C@H](CCCNC(=N)N)C(=O)N[C@H](CCCNC(=N)N)C(N)=O` [rylfrr] (H-[dR][dY][dL][dF][dR][dR]-NH2) displayed an IC50 of 27 ± 4 µM.

RRRRW: the “protection of neurons” value in assay [2] is “protected neurons from excitotoxic cell death”.

Consider “2H-3-(3-guanidinopropyl)-7-(3-guanidinopropyl)-8-(3-methylbutyl)diazolidine[1,2-b]dihydroimidazole”, for which the IC50 in assay [1] (setting [4]) was 4.2 µM.

Compound `N=C(N)NCCC[C@H](NC(=O)[C@H](CCCNC(=N)N)NC(=O)[C@H](CCCNC(=N)N)NC(=O)[C@H](CCCNC(=N)N)NC(=O)[C@H](CCCNC(=N)N)NC(=O)[C@@H](N)CCCNC(=N)N)C(N)=O` [RRRRRR] gave an IC50 in assay [1] of 0.5 ± 0.1 µM. In addition, in assay [2], the “protection of neurons” value is reported as “protected neurons from excitotoxic cell death”.

For `CC12CC3CC(C)(C1)CC(N)(C3)C2` [memantine, 1-amino-3,5-dimethyladmantane hydrochloride, reference compound], the “protection of neurons” value in assay [2] is on record as “prevented”.

As to “2H-3-(3-guanidinopropyl)-7-(but-2-yl)-8-(3-methyl-butyl)diazolidine[1,2-b]dihydroimidazole”, in assay [1] (setting [4]), the IC50 was found to be 11.8 µM.

Turning to RRRCRW, the “potency rank as NMDA blocker (FIG. 1)” value in assay [1] was “most potent”.

As for “H-RRRRWW-NH2 (C-terminus assumed) [RRRRWW]”, the “blockade effect on non-NMDA glutamate receptors” value in assay [3] is listed as “no blockade effect”. In assay [1], the IC50 amounted to 0.1 µM, the “current blockade at a steady concentration compared with the same concentration of memantine (FIG. 2)” value is reported as “comparable”, the “potency rank as NMDA blocker (FIG. 1)” value is “most potent” and the “selectivity for NMDA receptor channels” value is on record as “selective for NMDA receptor channels”. Moreover, in assay [2], the “protection of neurons” value is “prevented neuronal cell death”.
